{"source": "ChEMBL document CHEMBL1134491", "about": "“QSAR and molecular modeling studies of baclofen analogues as GABA(B) agonists. Insights into the role of the aromatic moiety in GABA(B) binding and activation” (J Med Chem, 2001)"}
{"experiment": "Inhibitory concentration against binding of (R)-(-)-[3H]-baclofen to GABAB sites on rat whole brain synaptic membrane", "units": {"IC50": "µM"}}
{"smiles": "Cc1ccc([C@H](CN)CC(=O)O)o1", "IC50": "> 100"}
{"smiles": "NC[C@H](CC(=O)O)c1ccsc1", "IC50": 20.9}
{"smiles": "NC[C@H](CC(=O)O)c1ccco1", "IC50": "> 100"}
{"smiles": "NC[C@H](CC(=O)O)c1cc(Cl)cs1", "IC50": 45.3}
{"smiles": "Cc1ccc([C@H](CN)CC(=O)O)s1", "IC50": 134}
{"smiles": "NC[C@H](CC(=O)O)c1ccc(F)cc1", "IC50": 0.8}
{"smiles": "NC[C@H](CC(=O)O)c1ccc(Cl)s1", "IC50": 0.61}
{"smiles": "Cc1ccsc1[C@H](CN)CC(=O)O", "IC50": 124}
{"smiles": "NC[C@H](CC(=O)O)c1ccc(Br)s1", "IC50": 1.86}
{"smiles": "NC[C@H](CC(=O)O)c1cccs1", "IC50": 9.72}
{"smiles": "NC[C@H](CC(=O)O)c1cc(Br)cs1", "IC50": 39.1}
{"smiles": "NC[C@H](CC(=O)O)c1ccc(O)cc1", "IC50": "> 100"}
{"smiles": "NC[C@H](CC(=O)O)c1cccc(Cl)c1", "IC50": 20}
{"smiles": "NC[C@H](CC(=O)O)c1ccccc1Cl", "IC50": 0.8}
